Data reported in US12643906B2, “Fused aza-heterocyclic amide compound and use thereof” (CSPC ZHONGQI PHARMACEUTICAL TECHNOLOGY (SHIJIAZHUANG) CO., …, priority 2020, dated 2026).
Where two headings read alike, the source gives them in different places.

Tests used:
TRKC = biological target: T1, TRKC (Homo sapiens, UniProt Q16288); assay: HTRF kinase inhibition assay, TRKC; assay type: biochemical
T1 construct: purchased Bioduro
Procedure: (§1) The compound to be tested with a certain concentration gradient and an enzyme solution were successively added into a plate (kinase buffer (1× kinase buffer (Cisbio, Cat #62EZBFDD), pH 7.5; 5 mM MgCl2, 1 mM DTT) was added into negative control wells), and the compound plate was centrifuged at 1000 rpm for 30 seconds. The plate was sealed and incubated in a Constant Temperature Incubator at 25° C. for 30 min. A substrate solution containing TK-Sub-biotin (Cisbio, Cat #61TKOBL) and ATP (Sigma, Cat #R0441) was prepared, the substrate solution was added into a 384-well plate, and the plate was centrifuged at 1000 rpm for 30 seconds. The plate was sealed and incubated in a Constant Temperature Incubator at 25° C. for 60 min.
(§2) TK antibody and XL665 were diluted, mixed and added into the assay plate, and the plate was centrifuged at 1000 rpm for 30 seconds. The plate was sealed and incubated in a Constant Temperature incubator Incubator at 25° C. for 60 min. The assay plate was placed on an Envision reader for reading. (HTRF 665/615 ratio: signal value at 665 nm/signal value at 615 nm) Inhibition=(rationegative control well−ratiocompound well)/(rationegative control well−ratioenzyme-free control well)×100% 1.3 Data Analysis and Curve Fitting
(§3) Data were fitted in XLFit excel add-in version 5.4.0.8 to obtain IC50 values.

ALK = biological target: T2, ALK (Homo sapiens, UniProt Q9UM73); assay: Kinase inhibition assay with fluorescein labeled peptide, ALK; assay type: biochemical
T2 construct: purchased Carna 08-105
Procedure: (§4) Compounds were diluted to a certain concentration in DMSO with 4-fold gradients. The compound with a certain concentration, an enzyme solution and DMSO were added into a 384-well plate, and the plate was incubated at room temperature for 10 min. […] The plate was subjected to reading.

TRKC(G696A) = biological target: T3, TRKC(G696A) (Homo sapiens, UniProt Q16288, G696A); assay: HTRF kinase inhibition assay, TRKC(G696A); assay type: biochemical
T3 construct: purchased Bioduro
Procedure: as §1
(§5) TK antibody and XL665 were diluted, mixed and added into the assay plate, and the plate was centrifuged at 1000 rpm for 30 seconds. The plate was sealed and incubated in a Constant Temperature incubator Incubator at 25° C. for 60 min. The assay plate was placed on an Envision reader for reading.
as §3

TRKA = biological target: T4, TRKA (Homo sapiens, UniProt P04629); assay: HTRF kinase inhibition assay, TRKA; assay type: biochemical
T4 construct: purchased Bioduro
Procedure: as §1, §2, §3

ROS1 = biological target: T5, ROS1 (Homo sapiens, UniProt P08922); assay: Kinase inhibition assay with fluorescein labeled peptide, ROS1; assay type: biochemical
T5 construct: purchased Carna 08-163
Procedure: as §4

Ba/F3 ETV6-NTRK3-G696A = biological target: T6, Ba/F3 ETV6-NTRK3-G696A (Homo sapiens, UniProt Q16288, G696A, cells depend on it); assay: In vitro cell proliferation inhibition (MTT); assay type: cell-based, murine; settings: 72 h, read-out: IC50 Ba/F3 ETV6-NTRK3-G696A
T6 construct: fused on or other part: P41212 (Transcription factor ETV6)
Procedure: • Source of 6 kinds of cell lines for the test: KYinno Biotechnology (Beijing) Co., Ltd. • Cell type: murine B cells • Culture medium: RPMI-1640+10% FB S 2. Test Method
(§6) Cells in the logarithmic growth phase were harvested and counted using a […]. The cell suspension with a certain density was pipetted uniformly and seeded into a 96-well plate with each well of 100 μL, and shaken to make the cells uniformly disperse into the wells. 100 μL of compound solution with certain concentration gradient was added into each well, and 3 duplicate wells were set for each concentration. The plate was cultured in a CO2 incubator at 37° C. for 72 h. 20 μL of MTT working solution (5 mg/mL) was added into each well, and the plate was placed at 37° C. for 4 h, and centrifuged at 1000 rpm for 5 min by a plate centrifuge. After 180 μL of culture medium was discarded, the plate was added with 150 μL of DMSO, and mixed well with a microplate shaker, the plate bottom was wiped, and optical density (OD) at 550 nm was detected with a microplate reader.

Ba/F3 ETV6-NTRK3-G623R = biological target: T7, Ba/F3 ETV6-NTRK3-G623R (Homo sapiens, UniProt Q16288, G623R, cells depend on it); assay: In vitro cell proliferation inhibition (MTT); assay type: cell-based, murine; settings: 72 h, read-out: IC50 Ba/F3 ETV6-NTRK3-G623R
T7 construct: fused on or other part: P41212 (Transcription factor ETV6)
Procedure: as §6

Ba/F3 LMNA-NTRK1 = biological target: T8, Ba/F3 LMNA-NTRK1 (Homo sapiens, UniProt P04629); assay: In vitro cell proliferation inhibition (MTT); assay type: cell-based, murine; settings: 72 h, read-out: IC50 Ba/F3 LMNA-NTRK1
T8 construct: fused on or other part: P02545 (Prelamin-A/C)
Procedure: as §6

Ba/F3 LMNA-NTRK1-G595R = biological target: T9, Ba/F3 LMNA-NTRK1-G595R (Homo sapiens, UniProt P04629, G595R, cells depend on it); assay: In vitro cell proliferation inhibition (MTT); assay type: cell-based, murine; settings: 72 h, read-out: IC50 Ba/F3 LMNA-NTRK1-G595R
T9 construct: fused on or other part: P02545 (Prelamin-A/C)
Procedure: as §6

Ba/F3 ETV6-NTRK2 = biological target: T10, Ba/F3 ETV6-NTRK2 (Homo sapiens, UniProt Q16620); assay: In vitro cell proliferation inhibition (MTT); assay type: cell-based, murine; settings: 72 h, read-out: IC50 Ba/F3 ETV6-NTRK2
T10 construct: fused on or other part: P41212 (Transcription factor ETV6)
Procedure: as §6

Ba/F3 LMNA-NTRK1-G667C = biological target: T11, Ba/F3 LMNA-NTRK1-G667C (Homo sapiens, UniProt P04629, G667C, cells depend on it); assay: In vitro cell proliferation inhibition (MTT); assay type: cell-based, murine; settings: 72 h, read-out: IC50 Ba/F3 LMNA-NTRK1-G667C
T11 construct: fused on or other part: P02545 (Prelamin-A/C)
Procedure: as §6

TRKA(G595R) = biological target: T12, TRKA(G595R) (Homo sapiens, UniProt P04629, G595R); assay: HTRF kinase inhibition assay, TRKA(G595R); assay type: biochemical
T12 construct: purchased signalchem
Procedure: as §1, §2, §3

TRKA(G667C) = biological target: T13, TRKA(G667C) (Homo sapiens, UniProt P04629, G667C); assay: HTRF kinase inhibition assay, TRKA(G667C); assay type: biochemical
T13 construct: purchased signalchem
Procedure: as §1, §2, §3

TRKC(G623R) = biological target: T14, TRKC(G623R) (Homo sapiens, UniProt Q16288, G623R); assay: HTRF kinase inhibition assay, TRKC(G623R); assay type: biochemical
T14 construct: purchased Bioduro
Procedure: as §1, §2, §3

TRKB = biological target: T15, TRKB (Homo sapiens, UniProt Q16620); assay: HTRF kinase inhibition assay, TRKB; assay type: biochemical
T15 construct: purchased Bioduro
Procedure: as §1, §5, §3

[1] = tested on: Ba/F3 LMNA-NTRK1-G595R model; settings: gavage
Procedure: (§7) The cells in the logarithmic growth phase were collected and re-suspending in serum-free culture medium to make the cell concentration at […] cells/mL. The cell suspension was added with equal volume of Matrigel to make the final cell concentration at 3×10^7-5×10^7 cells/mL. The animal model was established by subcutaneously inoculating 0.1 mL of tumor cell suspension in the axilla of the forelimb of NuNu mice (female, 4-6 weeks, Beijing Vital River Laboratory Animal Technology Co., Ltd.) in an amount of 3×10^6-5×10^6 cells/mouse.
(§8) The maximum and the minimum tumor diameters of the xenografts in nude mice were measured using a vernier caliper, and the tumor volume (TV) was calculated according to the formula: V=½×a×b^2, where a and b represent the maximum and minimum diameters of the tumor mass, respectively. Nude mice with appropriate tumor volume were selected and the mice were evenly divided into 7 groups of 6 mice (100-200 mm^3) by tumor volume using a random number method.
(§9) Tumor diameters were measured twice weekly and tumor volume was calculated. […] (where Ti represents the mean tumor volume of a certain administration group on a certain day; TO represents the mean tumor volume of the administration group at the start of administration, Vi represents the mean tumor volume of the vehicle control group on a certain day (same day as Ti) and V0 represents the mean tumor volume of the vehicle control group at the start of administration); • Tumor inhibition rate: at the end of the test, the animals were executed by removing the cervical vertebrae.

[2] = tested on: Ba/F3 LMNA-NTRK1-G667C model; settings: 100 mg/kg, gavage
Procedure: as §7, §8, §9

[3] = tested on: tropomyosin receptor kinase; settings: 46 evaluable patients, phase I and phase II clinical trials; cited from earlier work

T2 sequence (Q9UM73 1058-1620 limits assumed): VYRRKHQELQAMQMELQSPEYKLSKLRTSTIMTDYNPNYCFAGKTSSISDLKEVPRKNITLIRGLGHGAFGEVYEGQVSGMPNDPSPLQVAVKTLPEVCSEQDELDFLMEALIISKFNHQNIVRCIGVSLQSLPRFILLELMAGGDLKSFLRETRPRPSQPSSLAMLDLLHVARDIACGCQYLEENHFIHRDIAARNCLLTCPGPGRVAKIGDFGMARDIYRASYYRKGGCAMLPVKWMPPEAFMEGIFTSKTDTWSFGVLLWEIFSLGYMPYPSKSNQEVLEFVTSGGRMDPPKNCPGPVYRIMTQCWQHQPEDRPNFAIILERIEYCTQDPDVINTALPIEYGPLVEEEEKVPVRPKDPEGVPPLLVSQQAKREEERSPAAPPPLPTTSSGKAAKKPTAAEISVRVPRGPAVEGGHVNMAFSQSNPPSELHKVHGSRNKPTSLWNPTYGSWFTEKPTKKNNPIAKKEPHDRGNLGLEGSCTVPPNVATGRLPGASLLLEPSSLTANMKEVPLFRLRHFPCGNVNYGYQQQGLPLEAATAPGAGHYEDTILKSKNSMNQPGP
T10 sequence (Q16620 whole entry, change not shown, the tested form may be a part): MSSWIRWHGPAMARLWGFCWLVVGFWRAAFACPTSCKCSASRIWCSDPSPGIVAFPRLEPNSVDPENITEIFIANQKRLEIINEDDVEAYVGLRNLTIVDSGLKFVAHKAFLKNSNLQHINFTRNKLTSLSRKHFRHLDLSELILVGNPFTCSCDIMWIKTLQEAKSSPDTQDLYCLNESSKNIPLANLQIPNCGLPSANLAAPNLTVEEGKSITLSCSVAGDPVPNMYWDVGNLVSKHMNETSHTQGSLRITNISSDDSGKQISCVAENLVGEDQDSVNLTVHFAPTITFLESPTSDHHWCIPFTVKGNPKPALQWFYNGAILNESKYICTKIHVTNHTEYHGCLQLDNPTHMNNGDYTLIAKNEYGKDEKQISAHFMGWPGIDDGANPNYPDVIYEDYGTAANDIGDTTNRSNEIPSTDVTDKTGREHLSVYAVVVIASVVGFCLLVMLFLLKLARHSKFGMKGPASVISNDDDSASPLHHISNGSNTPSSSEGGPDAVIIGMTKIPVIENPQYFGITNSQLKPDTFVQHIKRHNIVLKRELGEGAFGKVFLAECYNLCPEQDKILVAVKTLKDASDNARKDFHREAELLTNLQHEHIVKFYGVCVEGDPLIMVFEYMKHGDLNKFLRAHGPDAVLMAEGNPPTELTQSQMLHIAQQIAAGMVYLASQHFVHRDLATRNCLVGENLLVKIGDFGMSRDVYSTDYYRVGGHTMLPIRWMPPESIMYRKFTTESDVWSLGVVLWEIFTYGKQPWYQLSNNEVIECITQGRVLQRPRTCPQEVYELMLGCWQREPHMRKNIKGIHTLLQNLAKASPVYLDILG
T7 sequence (Q16288 whole entry G623R, the tested form may be a part): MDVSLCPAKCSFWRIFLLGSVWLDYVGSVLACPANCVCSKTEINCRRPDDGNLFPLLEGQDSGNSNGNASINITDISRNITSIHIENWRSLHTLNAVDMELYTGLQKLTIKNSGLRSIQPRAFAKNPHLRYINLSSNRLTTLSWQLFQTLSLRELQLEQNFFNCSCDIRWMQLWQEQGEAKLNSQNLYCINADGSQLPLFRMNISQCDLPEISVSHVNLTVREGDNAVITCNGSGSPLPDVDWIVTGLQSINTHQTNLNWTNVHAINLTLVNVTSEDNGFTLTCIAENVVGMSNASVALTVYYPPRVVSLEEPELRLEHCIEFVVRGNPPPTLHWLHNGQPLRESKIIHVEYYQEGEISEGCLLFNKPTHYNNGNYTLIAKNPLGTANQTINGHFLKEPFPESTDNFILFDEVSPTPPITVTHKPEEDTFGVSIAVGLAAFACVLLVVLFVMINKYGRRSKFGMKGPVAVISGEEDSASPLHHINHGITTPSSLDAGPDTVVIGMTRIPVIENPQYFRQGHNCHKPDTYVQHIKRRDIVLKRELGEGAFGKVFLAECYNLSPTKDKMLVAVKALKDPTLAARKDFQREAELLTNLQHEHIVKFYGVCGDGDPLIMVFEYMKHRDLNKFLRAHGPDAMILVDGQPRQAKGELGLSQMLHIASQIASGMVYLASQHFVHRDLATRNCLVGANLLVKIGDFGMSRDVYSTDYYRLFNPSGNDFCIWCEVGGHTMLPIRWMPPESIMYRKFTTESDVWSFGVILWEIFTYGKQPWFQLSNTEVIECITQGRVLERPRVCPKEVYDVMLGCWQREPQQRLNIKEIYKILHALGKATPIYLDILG
T6 sequence (Q16288 whole entry G696A, the tested form may be a part): as the sequence (Q16288 whole entry G623R, the tested form may be a part) above, with R623G, G696A counted along it
T3 sequence (Q16288 32-839 G696A): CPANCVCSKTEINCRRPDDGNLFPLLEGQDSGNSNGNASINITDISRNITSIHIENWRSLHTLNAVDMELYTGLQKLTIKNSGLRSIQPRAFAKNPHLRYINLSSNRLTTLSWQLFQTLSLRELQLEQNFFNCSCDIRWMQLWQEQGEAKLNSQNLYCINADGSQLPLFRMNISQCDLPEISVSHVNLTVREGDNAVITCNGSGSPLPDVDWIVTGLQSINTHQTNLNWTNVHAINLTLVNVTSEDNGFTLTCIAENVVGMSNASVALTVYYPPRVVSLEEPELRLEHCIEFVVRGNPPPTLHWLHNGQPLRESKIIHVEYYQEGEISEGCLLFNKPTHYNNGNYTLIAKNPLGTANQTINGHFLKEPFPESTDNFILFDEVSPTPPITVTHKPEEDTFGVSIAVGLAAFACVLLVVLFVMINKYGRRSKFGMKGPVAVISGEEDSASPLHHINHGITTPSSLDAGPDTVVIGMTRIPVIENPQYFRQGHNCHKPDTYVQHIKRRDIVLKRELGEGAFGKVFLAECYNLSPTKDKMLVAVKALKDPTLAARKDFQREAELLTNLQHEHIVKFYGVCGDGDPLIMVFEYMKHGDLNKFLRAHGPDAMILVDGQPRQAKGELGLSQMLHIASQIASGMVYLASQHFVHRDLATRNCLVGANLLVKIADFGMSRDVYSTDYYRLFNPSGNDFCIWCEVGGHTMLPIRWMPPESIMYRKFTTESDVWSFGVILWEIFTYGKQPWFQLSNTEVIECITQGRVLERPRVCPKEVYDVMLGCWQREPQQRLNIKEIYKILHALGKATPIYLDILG
T4 sequence (P04629 33-796): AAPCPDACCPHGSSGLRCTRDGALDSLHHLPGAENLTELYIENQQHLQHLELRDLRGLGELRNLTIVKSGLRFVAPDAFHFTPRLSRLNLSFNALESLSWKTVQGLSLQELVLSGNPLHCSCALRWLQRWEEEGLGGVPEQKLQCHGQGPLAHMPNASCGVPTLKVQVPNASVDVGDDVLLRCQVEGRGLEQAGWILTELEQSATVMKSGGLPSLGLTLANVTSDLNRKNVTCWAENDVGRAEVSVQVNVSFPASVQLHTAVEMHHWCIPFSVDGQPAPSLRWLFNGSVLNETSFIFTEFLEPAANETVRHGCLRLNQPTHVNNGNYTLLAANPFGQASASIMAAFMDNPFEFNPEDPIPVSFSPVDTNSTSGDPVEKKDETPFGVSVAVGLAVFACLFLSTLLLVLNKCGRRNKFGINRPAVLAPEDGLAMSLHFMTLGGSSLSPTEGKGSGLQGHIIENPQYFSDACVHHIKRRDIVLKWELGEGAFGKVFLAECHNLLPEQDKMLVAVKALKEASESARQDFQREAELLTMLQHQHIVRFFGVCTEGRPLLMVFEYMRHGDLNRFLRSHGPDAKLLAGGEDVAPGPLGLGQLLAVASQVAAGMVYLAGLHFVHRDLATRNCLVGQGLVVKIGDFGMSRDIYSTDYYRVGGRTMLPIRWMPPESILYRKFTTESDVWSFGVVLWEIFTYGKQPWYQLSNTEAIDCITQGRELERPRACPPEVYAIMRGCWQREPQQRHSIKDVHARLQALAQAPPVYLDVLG

O=C(Nc1ccc(C2CCN(C(=O)CO)CC2)cc1)c1cnn2ccc(N3C[C@@H](F)C[C@@H]3c3cc(F)ccc3F)nc12 [Compound 10, 5-((2R,4S)-2-(2,5-difluorophenyl)-4-fluoropyrrolidin-1-yl)-N-(4-(1-(2-hydroxyacetyl)piperidin-4-yl)phenyl)pyrazolo[1,5-a]pyrimidine-3-carboxamide]
IC50 (TRKC): 1.04 nM
IC50 (ALK): 31 nM
IC50 (TRKC(G696A)): 0.558 nM
IC50 (TRKA): 0.322 nM
IC50 (ROS1): 0.4 nM
GI50 (Ba/F3 ETV6-NTRK3-G696A): 0.693 nM
GI50 (Ba/F3 ETV6-NTRK3-G623R): 0.277 nM
GI50 (Ba/F3 LMNA-NTRK1): 0.526 nM
GI50 (Ba/F3 LMNA-NTRK1-G595R): 0.095 nM
GI50 (Ba/F3 ETV6-NTRK2): 0.977 nM
GI50 (Ba/F3 LMNA-NTRK1-G667C): 0.536 nM
IC50 (TRKA(G595R)): < 0.169 nM
IC50 (TRKA(G667C)): 0.57 nM
IC50 (TRKC(G623R)): 0.804 nM
IC50 (TRKB): 1.15 nM
Number of animals (Survival/total) ([1]; 50 mg/kg): (6/6)
Rate of weight gain (%) ([1]; 50 mg/kg): 13.47%
TGI (%) ([1]; 50 mg/kg): 134.7%
Tumor volume (mm^3) ([1]; 50 mg/kg): 20.0 ± 12.6 mm^3
Tumor weight ([1]; 50 mg/kg): 0.01 ± 0.01 g
Tumor weight inhibition rate (%) ([1]; 50 mg/kg): 98.09%
Number of animals (Survival/total) ([1]; 100 mg/kg): (6/6)
Rate of weight gain (%) ([1]; 100 mg/kg): 4.36%
TGI (%) ([1]; 100 mg/kg): 132.5%
Tumor volume (mm^3) ([1]; 100 mg/kg): 25.8 ± 8.3 mm^3
Tumor weight ([1]; 100 mg/kg): 0.02 ± 0.01 g
Tumor weight inhibition rate (%) ([1]; 100 mg/kg): 96.75%
Number of animals (Survival/total) [2]: (6/6)
Rate of weight gain (%) [2]: 5.75%
TGI (%) [2]: 111.6%
Tumor volume (mm^3) [2]: 91.6 ± 19.5 mm^3
Tumor weight [2]: 0.12 ± 0.02 g
Tumor weight inhibition rate (%) [2]: 77.80%

O=C(Nc1cnn2ccc(N3CCC[C@@H]3c3cc(F)ccc3F)nc12)N1CC[C@H](O)C1 [LOXO-101, Larotrectinib]
IC50 (ALK): > 1000 nM
Overall Response Rate (ORR) [3]: 78%
GI50 (Ba/F3 ETV6-NTRK3-G696A): 35.8 nM
GI50 (Ba/F3 ETV6-NTRK3-G623R): 376 nM
GI50 (Ba/F3 ETV6-NTRK2): 15.1 nM
